Laboratory results: patent US5741811A, “Polythiophene anti-tumor agents” (Purdue Research Foundation, priority 1996, dated 1998)

Columns and labels:
[1] = water
[2] = system: NCI-H322M lung cancer cells; test: NCI human tumor cell line panel growth inhibition; assay type: cell-based; details: Homo sapiens, read-out: Log10 GI50 (converted)
LOX IMVI melanoma cells = test: NCI human tumor cell line panel growth inhibition; assay type: cell-based; details: read-out: Log10 GI50 (converted)
[3] = system: HCT-15 colon cancer cells; test: NCI human tumor cell line panel growth inhibition; assay type: cell-based; details: Homo sapiens, read-out: Log10 GI50 (converted)
ACHN renal cancer cells = test: NCI human tumor cell line panel growth inhibition; assay type: cell-based; details: read-out: Log10 GI50 (converted)
SF-268 CNS cancer cells = test: NCI human tumor cell line panel growth inhibition; assay type: cell-based; details: read-out: Log10 GI50 (converted)
[4] = system: IGROV-1 ovarian cancer cells; test: NCI human tumor cell line panel growth inhibition; assay type: cell-based; details: Homo sapiens, read-out: Log10 GI50 (converted)
TK-10 renal cancer cells = test: NCI human tumor cell line panel growth inhibition; assay type: cell-based; details: Homo sapiens, read-out: Log10 GI50 (converted)
M-14 melanoma cells = test: NCI human tumor cell line panel growth inhibition; assay type: cell-based; details: M14, read-out: Log10 GI50 (converted)
SNB-19 CNS cancer cells = test: NCI human tumor cell line panel growth inhibition; assay type: cell-based; details: Homo sapiens, read-out: Log10 GI50 (converted)
[5] = system: CAKI-1 renal cancer cells; test: NCI human tumor cell line panel growth inhibition; assay type: cell-based; details: Homo sapiens; CAKI-1, renal cancer; read-out: Log10 GI50 (converted)
MALME-3M melanoma cells = test: NCI human tumor cell line panel growth inhibition; assay type: cell-based; details: read-out: Log10 GI50 (converted)
UACC-257 melanoma cells = test: NCI human tumor cell line panel growth inhibition; assay type: cell-based; details: Homo sapiens, read-out: Log10 GI50 (converted)
[6] = system: HCT-116 colon cancer cells; test: NCI human tumor cell line panel growth inhibition; assay type: cell-based; details: Homo sapiens, read-out: Log10 GI50 (converted)
[7] = system: COLO-205 colon cancer cells; test: NCI human tumor cell line panel growth inhibition; assay type: cell-based; details: Homo sapiens; COLO-205, colon cancer; read-out: Log10 GI50 (converted)
[8] = system: NCI-H226 lung cancer cells; test: NCI human tumor cell line panel growth inhibition; assay type: cell-based; details: Homo sapiens, read-out: Log10 GI50 (converted)
SK-MEL-2 melanoma cells = test: NCI human tumor cell line panel growth inhibition; assay type: cell-based; details: read-out: Log10 GI50 (converted)
[9] = system: NCI-H23 lung cancer cells; test: NCI human tumor cell line panel growth inhibition; assay type: cell-based; details: read-out: Log10 GI50 (converted)
[10] = system: NCI-H460 lung cancer cells; test: NCI human tumor cell line panel growth inhibition; assay type: cell-based; details: Homo sapiens, read-out: Log10 GI50 (converted)
[11] = system: OVCAR-5 ovarian cancer cells; test: NCI human tumor cell line panel growth inhibition; assay type: cell-based; details: Homo sapiens, read-out: Log10 GI50 (converted)
HT29 colon cancer cells = test: NCI human tumor cell line panel growth inhibition; assay type: cell-based; details: Homo sapiens, HT-29, read-out: Log10 GI50 (converted)
A-498 renal cancer cells = test: NCI human tumor cell line panel growth inhibition; assay type: cell-based; details: Homo sapiens, A498, read-out: Log10 GI50 (converted)
[12] = system: OVCAR-8 ovarian cancer cells; test: NCI human tumor cell line panel growth inhibition; assay type: cell-based; details: Homo sapiens, read-out: Log10 GI50 (converted)
Procedure: The first screen measures the cytotoxicity against a panel of sixty different human tumor cell lines. This assay provides data regarding the general cytotoxicity of an individual compound.
(§1) The length of a bar is indicative of differential cytotoxicity against a specific type of tumor cells or tumor panels.
(§2) The antitumor cytotoxicity of the thiophene compounds tested in the first two in vitro assays was measured by a microculture assay using either 3-(4,5-dimethylthiazol-2-yl)-2,5-diphenyltetrazolium bromide (MTT) or sulforhodamine B (SRB). [M. R. Boyd in "Principles and Practices of Oncology," V. T. DeVita, Jr., S. Hellman and S. A. Rosenberg (Eds.), Vol. 3, PPO Updates, Number 10, 1989.] This assay has an advantage over in vivo assay in that results are obtained within a week as opposed to several months. The assay was carried out in 96-well microtiter plates. The MTT assay is based on the production of a dark blue formazan product by dehydrogenase in the mitochondria of live tumor cells after exposure to drug for 6 days [M. C. Alley, D. A. Scudiero, A. Monks, M. L. Hursey, M. J. Czerwinski, D. L. Fine, B. J. Abbott, J. G. Mayo, R. H. Shoemaker and M. R. Boyd, Cancer Res., 48, 589, 1988.] Thus, only live cells are stained and can be measured at 570 nm. The SRB assay is based on the binding of the anionic group to the basic amino acid residues of cellular proteins after exposure of tumor cells to drug for 2 days [P. Skehan, R. Storeng, D. Scudiero, A. Monks, J. McMahon, D. Vistica, J. T. Warren, H. Bohesch, S. Kenney and M. R. Boyd, J. Nat. Cancer Inst., 82, 1107, 1990.] Thus, the total protein (viability) can be measured at 564 nm.

SF-295 CNS cancer cells = test: NCI human tumor cell line panel growth inhibition; assay type: cell-based; details: read-out: Log10 GI50 (converted)
U251 CNS cancer cells = test: NCI human tumor cell line panel growth inhibition; assay type: cell-based; details: Homo sapiens, U-251, read-out: Log10 GI50 (converted)
[13] = system: OVCAR-3 ovarian cancer cells; test: NCI human tumor cell line panel growth inhibition; assay type: cell-based; details: Homo sapiens; OVCAR-3, ovarian cancer; read-out: Log10 GI50 (converted)
UACC-62 melanoma cells = test: NCI human tumor cell line panel growth inhibition; assay type: cell-based; details: Homo sapiens, read-out: Log10 GI50 (converted)
[14] = system: MDA-MB-435 breast cancer cells; test: NCI human tumor cell line panel growth inhibition; assay type: cell-based; details: read-out: Log10 GI50 (converted)
Source text: (§3) The cytotoxic activity of the present polythiophene compounds have been measured utilizing three different assays or screens. The first screen measures the cytotoxicity against a panel of sixty different human tumor cell lines. This assay provides data regarding the general cytotoxicity of an individual compound. In particular this type of assay is useful in identifying compounds which have enhanced cytotoxic activity against slow growing tumors as compared to faster growing tumor cells such as leukemia tumor cell lines. The identification of such compounds is critical since previously identified antitumor agents have low cytotoxic activity against slower growing tumors. […] The specificity of a cytotoxic compound for tumor cell lines relative to normal cells is an important characteristic of an effective antitumor agent.
as §1, §2

SK-MEL-5 melanoma cells = test: NCI human tumor cell line panel growth inhibition; assay type: cell-based; details: read-out: Log10 GI50 (converted)
Source text: as §3, §1, §2

[15] = system: MDA-N breast cancer cells; test: NCI human tumor cell line panel growth inhibition; assay type: cell-based; details: read-out: Log10 GI50 (converted)
Source text: as §3, §1, §2

[16] = system: PC-3 prostate cancer cells; test: NCI human tumor cell line panel growth inhibition; assay type: cell-based; details: read-out: Log10 GI50 (converted)
Source text: as §3, §1, §2

SK-MEL-28 melanoma cells = test: NCI human tumor cell line panel growth inhibition; assay type: cell-based; details: read-out: Log10 GI50 (converted)
Source text: as §3, §1, §2

[17] = system: HS 578T breast cancer cells; test: NCI human tumor cell line panel growth inhibition; assay type: cell-based; details: read-out: Log10 GI50 (converted)
Source text: as §3, §1, §2

SF-539 CNS cancer cells = test: NCI human tumor cell line panel growth inhibition; assay type: cell-based; details: read-out: Log10 GI50 (converted)
Source text: as §3, §1, §2

[18] = system: MCF7/ADR-RES breast cancer cells; test: NCI human tumor cell line panel growth inhibition; assay type: cell-based; details: read-out: Log10 GI50 (converted)
Source text: as §3, §1, §2

KM12 colon cancer cells = test: NCI human tumor cell line panel growth inhibition; assay type: cell-based; details: Homo sapiens, read-out: Log10 GI50 (converted)
Source text: as §3, §1, §2

[19] = system: OVCAR-4 ovarian cancer cells; test: NCI human tumor cell line panel growth inhibition; assay type: cell-based; details: Homo sapiens, read-out: Log10 GI50 (converted)
Source text: as §3, §1, §2

[20] = system: MDA-MB-231/ATCC breast cancer cells; test: NCI human tumor cell line panel growth inhibition; assay type: cell-based; details: read-out: Log10 GI50 (converted)
Source text: as §3, §1, §2

[21] = system: DU-145 prostate cancer cells; test: NCI human tumor cell line panel growth inhibition; assay type: cell-based; details: read-out: Log10 GI50 (converted)
Source text: as §3, §1, §2

[22] = system: BT-549 breast cancer cells; test: NCI human tumor cell line panel growth inhibition; assay type: cell-based; details: read-out: Log10 GI50 (converted)
Source text: as §3, §1, §2

MCF7 breast cancer cells = test: NCI human tumor cell line panel growth inhibition; assay type: cell-based; details: read-out: Log10 GI50 (converted)
Source text: as §3, §1, §2

HOP-92 lung cancer cells = test: NCI human tumor cell line panel growth inhibition; assay type: cell-based; details: Homo sapiens, read-out: Log10 GI50 (converted)
Source text: as §3, §1, §2

[23] = system: HCC-2998 colon cancer cells; test: NCI human tumor cell line panel growth inhibition; assay type: cell-based; details: Homo sapiens, read-out: Log10 GI50 (converted)
[24] = system: RXF-393 renal cancer cells; test: NCI human tumor cell line panel growth inhibition; assay type: cell-based; details: Homo sapiens, read-out: Log10 GI50 (converted)
[25] = system: T-47D breast cancer cells; test: NCI human tumor cell line panel growth inhibition; assay type: cell-based; details: T47D, read-out: Log10 GI50 (converted)
Procedure: The assay was carried out in 96-well microtiter plates. The MTT assay is based on the production of a dark blue formazan product by dehydrogenase in the mitochondria of live tumor cells after exposure to drug for 6 days [M. C. […] The SRB assay is based on the binding of the anionic group to the basic amino acid residues of cellular proteins after exposure of tumor cells to drug for 2 days [P. Skehan, R. Storeng, D. Scudiero, A. Monks, J. McMahon, D. Vistica, J. T. Warren, H. Bohesch, S. Kenney and M. R. Boyd, J. Nat.

SNB-75 CNS cancer cells = test: NCI human tumor cell line panel growth inhibition; assay type: cell-based; details: Homo sapiens, read-out: Log10 GI50 (converted)

NCc1ccc(-c2ccc(-c3cccs3)s2)s1 [NSC Code 652866, aminomethylterthiophene]
aminomethylterthiophene dissolved by 1 mL of H2O (as cyclodextrin complex) [1]: up to 77 mg

OCc1csc(-c2ccc(-c3ccc(CO)s3)s2)c1 [drawing 38]
GI50 [2]: 4.27 µM
GI50 (LOX IMVI melanoma cells): > 10 µM
GI50 [3]: > 10 µM
GI50 (ACHN renal cancer cells): > 10 µM
GI50 (SF-268 CNS cancer cells): > 10 µM
GI50 [4]: 0.145 µM
GI50 (TK-10 renal cancer cells): 0.0794 µM
GI50 (M-14 melanoma cells): > 10 µM
GI50 (SNB-19 CNS cancer cells): > 10 µM
GI50 [5]: 0.0251 µM
GI50 (MALME-3M melanoma cells): > 10 µM
GI50 (UACC-257 melanoma cells): 0.038 µM
GI50 [6]: 0.107 µM
GI50 [7]: 0.191 µM
GI50 [8]: 0.0141 µM
GI50 (SK-MEL-2 melanoma cells): > 10 µM
GI50 [9]: > 10 µM
GI50 [10]: 0.0389 µM
GI50 [11]: 0.126 µM
GI50 (HT29 colon cancer cells): 0.234 µM
GI50 (A-498 renal cancer cells): 0.0158 µM
GI50 [12]: > 10 µM
GI50 (SF-295 CNS cancer cells): > 10 µM
GI50 (U251 CNS cancer cells): 5.62 µM
GI50 [13]: 0.0692 µM
GI50 (UACC-62 melanoma cells): 0.182 µM
GI50 [14]: 4.37 µM
GI50 (SK-MEL-5 melanoma cells): > 10 µM
GI50 [15]: 9.55 µM
GI50 [16]: > 10 µM
GI50 (SK-MEL-28 melanoma cells): > 10 µM
GI50 [17]: 7.76 µM
GI50 (SF-539 CNS cancer cells): > 10 µM
GI50 [18]: > 10 µM
GI50 (KM12 colon cancer cells): > 10 µM
GI50 [19]: 0.302 µM
GI50 [20]: > 10 µM
GI50 [21]: > 10 µM
GI50 [22]: > 10 µM
GI50 (MCF7 breast cancer cells): 0.138 µM
GI50 (HOP-92 lung cancer cells): 9.33 µM
GI50 [23]: 5.89 µM
GI50 [24]: > 10 µM
GI50 [25]: 0.224 µM
GI50 (SNB-75 CNS cancer cells): 2 µM
